Assay results: US20220018828A1, “METHODS AND KIT FOR ASSAYING LYTIC POTENTIAL OF IMMUNE EFFECTOR CELLS” (INSERM (INSTITUT NATIONAL DE LA SANTÉ ET LA RECHERCHE …, priority 2018, published 2022)

Test system: melanoma cells (D10)
Assay: Membrane turnover assay (FM1-43 uptake by FACS in CTL/target cell conjugates)
Assay type: cell-based, human
Conditions: D10 cells loaded with antigenic peptide, pretreated 2 h with 50 μM BAPTA-AM, alone or after 5 min conjugation with CTL; compared with untreated cells
Procedure: Loading of target cells: Target cells were left unpulsed or pulsed with 10 μM antigenic peptide during 2 h at 37° C./5% CO2. Cells were washed three times, re-suspended at 15×10^3 to 30×10^3 cells in 25 μl RPMI/5% FCS/HEPES and transferred to a 96-well U-bottom plate.
In some experiments, D10 cells were pretreated (2 h) or not with 50 μM BAPTA-AM (ThermoFisher Scientific).
CTL staining: CTL were stained with 10 μM CellTrace Violet (CTV, ThermoFisher Scientific) for 30 min at 37° C./5% CO2, washed three times and re-suspended at 30×10^3 to 60×10^3 cells per 25 μl RPMI/5% FCS/HEPES.
Conjugation of CTL and target cells: 25 μl of CTL (previously stained with CTV) were added in wells containing pulsed or unpulsed target cells at 2:1 CTL/target cell ratio. Target cells were previously added to three 96-U-bottom plates (one plate per time point: 2, 5 or 15 minutes). A pre-diluted solution of FM1-43 (ThermoFisher Scientific) was prepared at 20 μg/ml. 50 μl of this solution were added to wells containing in 50 μl the cells of interest to have a final concentration of 10 μg/ml. The FM1-43 solution was added to wells at the same time of CTL. Cells were pelleted during 1 minute at 455 g and incubated at 37° C./5% CO2 for 2, 5 or 15 minutes.
At the end of the incubation time, 100 μl cold FACS buffer (PBS 1% FBS 1% HS 0.1% azide) supplemented with 0.5 mM EDTA were added to each well on ice. […]

Question: For `CC(=O)OCOC(=O)CN(CC(=O)OCOC(C)=O)c1ccccc1OCCOc1ccccc1N(CC(=O)OCOC(C)=O)CC(=O)OCOC(C)=O` [BAPTA-AM], which “FM1-43 uptake (fluorescence intensity) in melanoma cells” value is on record?
Answer: The value was “decrease of FM1-43 uptake”.
